The target of assay [1] is T1, Inhibitor of nuclear factor kappa-B kinase subunit epsilon (Homo sapiens) (UniProt Q14164).
T1 sequence (whole entry): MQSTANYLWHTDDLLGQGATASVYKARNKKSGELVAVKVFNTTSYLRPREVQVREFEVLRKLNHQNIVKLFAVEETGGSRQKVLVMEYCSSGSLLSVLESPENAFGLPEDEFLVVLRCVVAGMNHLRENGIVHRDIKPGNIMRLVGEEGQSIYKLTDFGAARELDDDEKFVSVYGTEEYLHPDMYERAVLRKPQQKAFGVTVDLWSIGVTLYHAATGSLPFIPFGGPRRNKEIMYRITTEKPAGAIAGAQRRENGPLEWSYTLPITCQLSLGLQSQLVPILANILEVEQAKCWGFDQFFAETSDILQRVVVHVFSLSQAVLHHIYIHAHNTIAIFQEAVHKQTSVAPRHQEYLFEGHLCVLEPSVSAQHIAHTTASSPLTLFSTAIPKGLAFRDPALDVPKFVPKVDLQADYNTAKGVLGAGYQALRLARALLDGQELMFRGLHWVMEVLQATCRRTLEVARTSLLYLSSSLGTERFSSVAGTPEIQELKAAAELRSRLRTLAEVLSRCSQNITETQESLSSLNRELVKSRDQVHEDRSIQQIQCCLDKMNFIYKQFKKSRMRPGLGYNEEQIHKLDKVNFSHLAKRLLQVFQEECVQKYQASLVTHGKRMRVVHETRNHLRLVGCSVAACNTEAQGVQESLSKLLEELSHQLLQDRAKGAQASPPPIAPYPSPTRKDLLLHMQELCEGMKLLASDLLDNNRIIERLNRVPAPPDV
The assay is described as follows: Inhibition of IKKe Lys2 labeling site in human A-375 cells at 5 uM by KiNativ Profiling analysis relative to control. It counts as cell-based.

The target in assay [2] is Cyclin-dependent kinase 13 (Homo sapiens) (UniProt Q14004). The assay is described as follows: Inhibition of CDC2L5 (unknown origin) at 1 uM by Ambit Kinomescan binding assay relative to control.
Assay [3] concerns the target Ribosomal protein S6 kinase alpha-5 (Homo sapiens) (UniProt O75582). The assay is described as follows: Inhibition of N-terminal RPS6KA5 kinase domain 1 (unknown origin) at 10 uM by Ambit Kinomescan binding assay relative to control.
Assay [4] concerns the target Insulin receptor (Homo sapiens) (UniProt P06213). The assay is described as follows: Inhibition of INSR (unknown origin) at 10 uM by Ambit Kinomescan binding assay relative to control.
Assay [5] deals with Serine/threonine-protein kinase WNK1 (Homo sapiens) (UniProt Q9H4A3). Kind of assay: Inhibition of Wnk1 Lys2 labeling site in human Huh-7 cells at 1 uM by KiNativ Profiling analysis relative to control. It counts as cell-based.
Assay [6] has as its target Serine/threonine-protein kinase MARK2 (Homo sapiens) (UniProt Q7KZI7). Kind of assay: Inhibition of MARK2 Lys1 labeling site harbouring HILTGKEVAVKIIDKTQLNSSSLQK in human Huh-7 cell lysate at 1 uM by KiNativ Profiling analysis relative to control. It counts as subcellular.
The target of assay [7] is T2, NUAK family SNF1-like kinase 1 (Homo sapiens) (UniProt O60285).
T2 sequence (whole entry): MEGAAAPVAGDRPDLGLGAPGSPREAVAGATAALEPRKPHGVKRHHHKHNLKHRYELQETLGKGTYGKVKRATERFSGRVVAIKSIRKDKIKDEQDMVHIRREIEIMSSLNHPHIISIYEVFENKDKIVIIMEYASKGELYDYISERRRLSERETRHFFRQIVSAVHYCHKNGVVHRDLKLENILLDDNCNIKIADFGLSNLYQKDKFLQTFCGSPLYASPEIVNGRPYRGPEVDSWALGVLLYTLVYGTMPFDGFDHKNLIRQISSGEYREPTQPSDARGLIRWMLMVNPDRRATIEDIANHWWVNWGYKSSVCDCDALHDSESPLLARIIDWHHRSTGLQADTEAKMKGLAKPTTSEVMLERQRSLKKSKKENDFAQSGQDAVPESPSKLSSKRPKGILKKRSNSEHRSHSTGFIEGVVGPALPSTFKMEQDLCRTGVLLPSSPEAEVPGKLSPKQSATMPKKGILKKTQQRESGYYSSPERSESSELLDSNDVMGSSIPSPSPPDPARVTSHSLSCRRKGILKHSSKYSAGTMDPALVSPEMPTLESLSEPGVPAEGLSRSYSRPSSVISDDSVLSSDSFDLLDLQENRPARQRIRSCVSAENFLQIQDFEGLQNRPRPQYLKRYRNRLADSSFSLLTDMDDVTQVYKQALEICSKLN
The assay is described as follows: Inhibition of NuaK1 Lys2 labeling site in human Huh-7 cell lysate at 1 uM by KiNativ Profiling analysis relative to control. It counts as subcellular.

In assay [8] the target is Ribosomal protein S6 kinase alpha-1 (Homo sapiens) (UniProt Q15418). Kind of assay: Inhibition of RSK1 domain 1 ACT labeling site in human Huh-7 cell lysate at 1 uM by KiNativ Profiling analysis relative to control. It counts as subcellular.

Each structure is given as a SMILES string. Activity calls are given as the source filed them. The rule behind the calls is not given here.

Chain of Serine/threonine-protein kinase WNK1 (Homo sapiens) (Q9H4A3 whole entry, looked up): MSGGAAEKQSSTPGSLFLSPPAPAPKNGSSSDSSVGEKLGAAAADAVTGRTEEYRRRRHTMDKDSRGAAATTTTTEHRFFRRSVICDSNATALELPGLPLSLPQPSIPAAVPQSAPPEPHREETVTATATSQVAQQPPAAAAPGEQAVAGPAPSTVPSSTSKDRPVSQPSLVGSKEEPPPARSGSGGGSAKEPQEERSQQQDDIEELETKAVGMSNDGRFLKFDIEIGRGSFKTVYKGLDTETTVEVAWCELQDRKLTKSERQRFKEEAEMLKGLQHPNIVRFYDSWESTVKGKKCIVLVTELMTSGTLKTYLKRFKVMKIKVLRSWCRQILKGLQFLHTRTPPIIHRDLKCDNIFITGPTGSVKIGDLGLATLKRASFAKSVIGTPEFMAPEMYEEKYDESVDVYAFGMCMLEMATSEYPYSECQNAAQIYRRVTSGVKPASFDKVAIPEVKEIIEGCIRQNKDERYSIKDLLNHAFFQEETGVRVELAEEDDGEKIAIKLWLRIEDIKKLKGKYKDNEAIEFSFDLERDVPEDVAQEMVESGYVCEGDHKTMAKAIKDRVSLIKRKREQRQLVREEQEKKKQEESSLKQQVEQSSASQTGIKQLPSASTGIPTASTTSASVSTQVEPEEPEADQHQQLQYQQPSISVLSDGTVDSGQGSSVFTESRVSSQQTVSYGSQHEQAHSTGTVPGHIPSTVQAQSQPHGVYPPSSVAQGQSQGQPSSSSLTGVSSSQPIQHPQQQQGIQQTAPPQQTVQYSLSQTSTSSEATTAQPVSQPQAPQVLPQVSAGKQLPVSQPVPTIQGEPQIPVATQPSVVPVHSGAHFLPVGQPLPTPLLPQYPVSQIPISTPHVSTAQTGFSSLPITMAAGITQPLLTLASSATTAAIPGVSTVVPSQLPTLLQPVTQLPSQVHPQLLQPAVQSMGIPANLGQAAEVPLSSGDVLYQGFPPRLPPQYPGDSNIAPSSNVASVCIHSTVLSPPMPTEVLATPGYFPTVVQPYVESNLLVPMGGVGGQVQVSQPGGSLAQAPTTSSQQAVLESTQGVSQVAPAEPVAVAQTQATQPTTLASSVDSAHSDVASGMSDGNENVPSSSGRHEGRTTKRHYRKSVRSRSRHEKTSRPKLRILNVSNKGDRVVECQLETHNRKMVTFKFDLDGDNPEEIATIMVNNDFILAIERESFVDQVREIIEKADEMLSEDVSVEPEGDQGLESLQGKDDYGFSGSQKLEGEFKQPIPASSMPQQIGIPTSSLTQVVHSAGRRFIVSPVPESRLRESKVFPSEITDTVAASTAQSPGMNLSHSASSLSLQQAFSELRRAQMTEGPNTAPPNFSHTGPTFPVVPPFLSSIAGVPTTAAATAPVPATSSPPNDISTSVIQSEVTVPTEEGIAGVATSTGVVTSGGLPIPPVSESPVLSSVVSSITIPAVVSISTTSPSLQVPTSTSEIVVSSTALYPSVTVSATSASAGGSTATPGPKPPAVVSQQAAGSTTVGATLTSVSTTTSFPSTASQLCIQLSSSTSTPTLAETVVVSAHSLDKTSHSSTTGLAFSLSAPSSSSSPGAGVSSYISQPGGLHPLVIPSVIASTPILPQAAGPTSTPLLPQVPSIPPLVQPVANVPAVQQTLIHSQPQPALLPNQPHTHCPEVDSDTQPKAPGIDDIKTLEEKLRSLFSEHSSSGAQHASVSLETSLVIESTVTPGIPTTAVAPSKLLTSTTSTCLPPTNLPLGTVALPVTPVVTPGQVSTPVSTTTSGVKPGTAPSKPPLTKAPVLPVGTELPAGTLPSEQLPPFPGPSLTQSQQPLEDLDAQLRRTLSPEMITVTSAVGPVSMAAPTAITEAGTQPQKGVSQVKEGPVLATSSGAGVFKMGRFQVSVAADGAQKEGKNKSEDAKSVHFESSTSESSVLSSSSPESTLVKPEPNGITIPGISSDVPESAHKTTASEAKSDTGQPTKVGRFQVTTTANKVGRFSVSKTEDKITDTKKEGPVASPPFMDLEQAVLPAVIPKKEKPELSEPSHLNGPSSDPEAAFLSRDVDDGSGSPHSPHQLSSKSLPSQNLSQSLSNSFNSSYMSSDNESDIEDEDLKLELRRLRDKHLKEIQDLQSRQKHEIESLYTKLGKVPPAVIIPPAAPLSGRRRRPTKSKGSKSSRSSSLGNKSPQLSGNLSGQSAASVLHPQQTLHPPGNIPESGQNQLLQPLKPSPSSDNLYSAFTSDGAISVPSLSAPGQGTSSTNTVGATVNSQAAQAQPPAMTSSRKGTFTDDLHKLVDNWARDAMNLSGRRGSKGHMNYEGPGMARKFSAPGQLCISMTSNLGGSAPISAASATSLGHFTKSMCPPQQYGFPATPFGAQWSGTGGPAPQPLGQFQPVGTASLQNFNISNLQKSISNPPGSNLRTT
Chain of Ribosomal protein S6 kinase alpha-1 (Homo sapiens) (Q15418 whole entry, the tested form may be a part): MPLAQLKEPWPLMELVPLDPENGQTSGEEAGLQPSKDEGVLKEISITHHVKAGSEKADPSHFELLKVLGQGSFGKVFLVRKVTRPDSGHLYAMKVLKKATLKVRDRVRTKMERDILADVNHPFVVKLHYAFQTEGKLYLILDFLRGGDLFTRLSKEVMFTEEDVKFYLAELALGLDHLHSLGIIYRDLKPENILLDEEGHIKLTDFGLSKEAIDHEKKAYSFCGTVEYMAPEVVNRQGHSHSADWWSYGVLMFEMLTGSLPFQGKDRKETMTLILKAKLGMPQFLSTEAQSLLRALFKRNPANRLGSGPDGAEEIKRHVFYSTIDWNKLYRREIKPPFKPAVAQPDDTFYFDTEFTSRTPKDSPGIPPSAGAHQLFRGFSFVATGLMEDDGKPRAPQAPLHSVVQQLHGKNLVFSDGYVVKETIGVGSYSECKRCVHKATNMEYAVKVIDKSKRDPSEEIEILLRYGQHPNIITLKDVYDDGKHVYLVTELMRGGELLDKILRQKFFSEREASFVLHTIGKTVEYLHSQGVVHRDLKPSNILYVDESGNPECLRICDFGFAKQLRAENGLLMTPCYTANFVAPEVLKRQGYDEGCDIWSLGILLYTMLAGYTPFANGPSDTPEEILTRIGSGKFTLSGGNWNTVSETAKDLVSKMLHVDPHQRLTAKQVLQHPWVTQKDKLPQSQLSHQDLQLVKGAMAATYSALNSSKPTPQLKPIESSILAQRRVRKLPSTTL
Chain of Ribosomal protein S6 kinase alpha-5 (Homo sapiens) (O75582 whole entry, looked up, the tested form may be a part): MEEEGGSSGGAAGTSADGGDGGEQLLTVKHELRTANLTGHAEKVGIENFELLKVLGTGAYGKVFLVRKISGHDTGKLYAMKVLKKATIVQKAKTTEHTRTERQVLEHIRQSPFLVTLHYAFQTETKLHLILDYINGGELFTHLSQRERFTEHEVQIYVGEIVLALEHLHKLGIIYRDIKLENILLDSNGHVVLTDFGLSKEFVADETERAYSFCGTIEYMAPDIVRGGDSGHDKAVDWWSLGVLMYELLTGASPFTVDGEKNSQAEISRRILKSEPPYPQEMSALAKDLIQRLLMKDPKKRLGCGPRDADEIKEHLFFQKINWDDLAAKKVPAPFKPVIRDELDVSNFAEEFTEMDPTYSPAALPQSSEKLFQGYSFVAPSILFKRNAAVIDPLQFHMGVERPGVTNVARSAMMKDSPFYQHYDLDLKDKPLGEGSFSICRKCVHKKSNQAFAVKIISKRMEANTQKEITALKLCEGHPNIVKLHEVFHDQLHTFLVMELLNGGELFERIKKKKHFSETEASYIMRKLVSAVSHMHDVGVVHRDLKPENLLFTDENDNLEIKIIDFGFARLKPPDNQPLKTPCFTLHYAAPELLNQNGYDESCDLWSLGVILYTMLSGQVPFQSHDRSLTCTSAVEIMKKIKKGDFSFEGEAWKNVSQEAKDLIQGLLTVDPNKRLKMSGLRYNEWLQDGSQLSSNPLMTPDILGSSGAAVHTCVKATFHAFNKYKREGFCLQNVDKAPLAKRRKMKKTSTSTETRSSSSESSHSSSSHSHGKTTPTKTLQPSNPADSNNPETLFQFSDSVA
Chain of Serine/threonine-protein kinase MARK2 (Homo sapiens) (Q7KZI7 whole entry): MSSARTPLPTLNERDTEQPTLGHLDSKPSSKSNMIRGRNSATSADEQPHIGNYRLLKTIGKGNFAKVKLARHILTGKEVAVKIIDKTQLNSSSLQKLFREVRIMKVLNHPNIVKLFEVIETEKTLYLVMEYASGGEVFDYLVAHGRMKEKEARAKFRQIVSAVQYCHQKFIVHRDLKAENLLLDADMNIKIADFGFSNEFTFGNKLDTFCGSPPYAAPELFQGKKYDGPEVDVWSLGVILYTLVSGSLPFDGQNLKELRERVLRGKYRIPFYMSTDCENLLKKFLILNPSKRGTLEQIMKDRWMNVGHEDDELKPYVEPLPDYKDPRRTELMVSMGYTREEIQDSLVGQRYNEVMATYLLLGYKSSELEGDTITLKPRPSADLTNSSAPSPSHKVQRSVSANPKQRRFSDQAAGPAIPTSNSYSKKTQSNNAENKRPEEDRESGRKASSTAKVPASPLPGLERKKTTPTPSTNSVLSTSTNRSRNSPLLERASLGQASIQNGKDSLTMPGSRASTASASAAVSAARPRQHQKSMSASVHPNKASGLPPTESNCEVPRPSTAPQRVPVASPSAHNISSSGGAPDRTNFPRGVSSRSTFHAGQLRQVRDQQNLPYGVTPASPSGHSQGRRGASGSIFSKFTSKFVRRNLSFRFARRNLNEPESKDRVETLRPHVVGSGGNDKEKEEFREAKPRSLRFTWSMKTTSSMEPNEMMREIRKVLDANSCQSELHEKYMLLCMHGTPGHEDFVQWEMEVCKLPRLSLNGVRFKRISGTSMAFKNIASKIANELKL

Usually inhibition stands for the drop in the measured response relative to a control, in per cent. With `CCN1CCN(Cc2ccc(NC(=O)c3ccc(C)c(/C=C/c4cnc5[nH]ccc5c4OC)c3)cc2C(F)(F)F)CC1`, the results for the inhibition in assay [1] and in assay [2] were 37.6% and 100%, respectively.

For the compound `CCN1CCN(Cc2ccc(NC(=O)c3ccc(C)c(Oc4ccnc5[nH]ccc45)c3)cc2C(F)(F)F)CC1`, in assay [3], the inhibition result was “inactive”. The inhibition in assay [4] turned out to be 30%.

In the case of `CNc1cc(Oc2cc(C(=O)Nc3cc(N4CCN(C)CC4)cc(C(F)(F)F)c3)ccc2C)ncn1`, the inhibition in assay [5] was 15.3%; in assay [6], -1.9%; in assay [7], -8.6%; in assay [8] it was 9.3%.
